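In this assay, cells in 96-well plates receive the compound at five concentrations for 48 hours. Endpoints are linearly interpolated between the surrounding concentrations. GI50: concentration for 50% inhibition of growth.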 Calls of active or inactive are those of the source. Rule as the data show it: active = GI50 up to about 1.1 µM and inactive = higher.
Key:
Test in all cases: NCI tumour cell line growth inhibition, 48 h
SN12C = system: SN12C
SR = system: SR
SK-MEL-2 = system: SK-MEL-2
SF-539 = system: SF-539
KM12 = system: KM12
MOLT-4 = system: MOLT-4
PC-3 = system: PC-3
COLO 205 = system: COLO 205
CAKI-1 = system: CAKI-1
A549 = system: A549
HT-29 = system: HT-29
MDA-N = system: MDA-N
CCRF-CEM = system: CCRF-CEM
SK-MEL-28 = system: SK-MEL-28
T47D = system: T47D
UACC-257 = system: UACC-257
Hs-578T = system: Hs-578T
BT-549 = system: BT-549
IGROV-1 = system: IGROV-1
NCI-H460 = system: NCI-H460

Structure (SMILES)	GI50 (SN12C)	GI50 (SR)	GI50 (SK-MEL-2)	GI50 (SF-539)	GI50 (KM12)	GI50 (MOLT-4)	GI50 (PC-3)	GI50 (COLO 205)	GI50 (CAKI-1)	GI50 (A549)	GI50 (HT-29)	GI50 (MDA-N)	GI50 (CCRF-CEM)	GI50 (SK-MEL-28)	GI50 (T47D)	GI50 (UACC-257)	GI50 (Hs-578T)	GI50 (BT-549)	GI50 (IGROV-1)	GI50 (NCI-H460)
Cc1nnc(Nc2ccccc2)o1	> 100 µM (inactive)	> 100 µM (inactive)	70.8 µM (inactive)	> 100 µM (inactive)	> 100 µM (inactive)	> 100 µM (inactive)	> 100 µM (inactive)	> 100 µM (inactive)	> 100 µM (inactive)	> 100 µM (inactive)	> 100 µM (inactive)	> 100 µM (inactive)	> 100 µM (inactive)	> 100 µM (inactive)	> 100 µM (inactive)	> 100 µM (inactive)				
O=C(Cn1c2c(c3ccccc31)CCCC2)NC1CCCCC1	> 100 µM (inactive)		> 100 µM (inactive)	> 100 µM (inactive)		> 10 µM (inactive)	88.7 µM (inactive)	> 100 µM (inactive)	> 100 µM (inactive)	> 100 µM (inactive)	> 100 µM (inactive)	> 100 µM (inactive)	> 100 µM (inactive)	63 µM (inactive)		> 100 µM (inactive)	55 µM (inactive)	> 100 µM (inactive)	22.5 µM (inactive)	> 100 µM (inactive)
CC(C)(C)C(=O)CC(=O)C(F)(F)C(F)(F)C(F)(F)F	13.9 µM (inactive)	5.06 µM (inactive)	16.4 µM (inactive)	24.8 µM (inactive)	16.7 µM (inactive)	17.9 µM (inactive)	13.6 µM (inactive)	19 µM (inactive)	14.7 µM (inactive)	22.3 µM (inactive)	17.1 µM (inactive)	15.4 µM (inactive)	16.3 µM (inactive)	14.1 µM (inactive)	16 µM (inactive)	15.3 µM (inactive)	14.6 µM (inactive)		11.9 µM (inactive)	12.9 µM (inactive)
CC1(C)OP(=O)(c2ccccc2)C=C1Sc1ccc([N+](=O)[O-])cc1[N+](=O)[O-] (stereo unspecified)	45.9 µM (inactive)	17.3 µM (inactive)	> 100 µM (inactive)	33.7 µM (inactive)	98.2 µM (inactive)		65.3 µM (inactive)	> 100 µM (inactive)	> 100 µM (inactive)	> 100 µM (inactive)	45.6 µM (inactive)	71.8 µM (inactive)		85.1 µM (inactive)	> 100 µM (inactive)	> 100 µM (inactive)	> 100 µM (inactive)		> 100 µM (inactive)	> 100 µM (inactive)
CC(=O)c1c(P(=O)(OC(C)C)OC(C)C)nn(-c2ccc([N+](=O)[O-])cc2)c1C	> 100 µM (inactive)	> 100 µM (inactive)	> 100 µM (inactive)	> 100 µM (inactive)	> 100 µM (inactive)	> 100 µM (inactive)		> 100 µM (inactive)	> 100 µM (inactive)	> 100 µM (inactive)	> 100 µM (inactive)		> 100 µM (inactive)	> 100 µM (inactive)		> 100 µM (inactive)			> 100 µM (inactive)	> 100 µM (inactive)
CC(=O)OC/C=C/Cn1ncc(=O)[nH]c1=O	> 100 µM (inactive)		> 100 µM (inactive)	> 100 µM (inactive)	> 100 µM (inactive)	> 100 µM (inactive)	> 100 µM (inactive)	> 100 µM (inactive)	> 100 µM (inactive)	> 100 µM (inactive)	> 100 µM (inactive)	> 100 µM (inactive)	> 10 µM (inactive)	> 100 µM (inactive)	> 100 µM (inactive)		> 100 µM (inactive)		> 100 µM (inactive)	> 100 µM (inactive)
CC(=O)N(CN1C(=O)CCC1C(=O)O)c1cccc(O)c1 (stereo unspecified)	> 100 µM (inactive)		> 100 µM (inactive)	> 100 µM (inactive)	> 100 µM (inactive)	> 100 µM (inactive)	> 100 µM (inactive)	> 100 µM (inactive)	> 100 µM (inactive)	> 100 µM (inactive)	> 100 µM (inactive)	> 100 µM (inactive)	> 100 µM (inactive)	> 100 µM (inactive)	> 100 µM (inactive)	> 100 µM (inactive)	> 100 µM (inactive)		> 100 µM (inactive)	> 100 µM (inactive)
O=C1CCC2(CC1CC[S+]([O-])c1ccccc1)OCCO2 (stereo unspecified)		> 100 µM (inactive)	> 100 µM (inactive)	> 100 µM (inactive)	> 100 µM (inactive)	> 100 µM (inactive)	> 100 µM (inactive)	> 100 µM (inactive)	> 100 µM (inactive)	> 100 µM (inactive)	> 100 µM (inactive)	> 100 µM (inactive)	> 100 µM (inactive)	> 100 µM (inactive)	> 100 µM (inactive)	> 100 µM (inactive)	> 100 µM (inactive)		> 100 µM (inactive)	> 100 µM (inactive)
C/C=C\C(CC(=O)NCCC1CN(C(=O)OCc2ccccc2)c2ccccc21)CC(=O)OC (stereo unspecified)			> 100 µM (inactive)		> 100 µM (inactive)	> 100 µM (inactive)	99.8 µM (inactive)	50.5 µM (inactive)	> 100 µM (inactive)	> 100 µM (inactive)	> 100 µM (inactive)	> 100 µM (inactive)	> 100 µM (inactive)	> 100 µM (inactive)		> 100 µM (inactive)	> 100 µM (inactive)	> 100 µM (inactive)	> 100 µM (inactive)	86.5 µM (inactive)
Cc1cc(-c2[nH]c(C(=O)O)cc2I)on1			> 100 µM (inactive)		> 100 µM (inactive)	> 100 µM (inactive)	> 100 µM (inactive)	> 100 µM (inactive)	93.1 µM (inactive)	56.6 µM (inactive)	> 100 µM (inactive)	> 100 µM (inactive)		> 100 µM (inactive)		> 100 µM (inactive)	67.9 µM (inactive)	66.1 µM (inactive)	12.5 µM (inactive)	> 100 µM (inactive)
CCN(CCCl)c1cc(CN(C)C)cc(NC(=O)c2ccc(C(=O)Nc3ccccc3)cc2)c1	0.767 µM (active)	0.263 µM (active)	0.27 µM (active)	0.647 µM (active)	1.06 µM (active)	0.284 µM (active)	0.34 µM (active)	1.04 µM (active)	0.65 µM (active)	0.42 µM (active)	0.174 µM (active)	0.298 µM (active)	0.27 µM (active)	1.19 µM (inactive)	1.24 µM (inactive)	1.3 µM (inactive)	0.218 µM (active)		0.177 µM (active)	0.275 µM (active)
COCC(/N=C\N1CCCc2ccccc2[C@@H]1CCCCl)C(C)(C)C (stereo partly specified)	17.1 µM (inactive)	2.05 µM (inactive)	17.1 µM (inactive)	12.1 µM (inactive)	4.24 µM (inactive)	1.71 µM (inactive)	0.482 µM (active)	0.586 µM (active)	1.58 µM (inactive)	13.4 µM (inactive)	1.54 µM (inactive)	33.8 µM (inactive)	0.444 µM (active)	> 100 µM (inactive)	21.2 µM (inactive)	0.798 µM (active)	0.0184 µM (active)		0.353 µM (active)	35.7 µM (inactive)

From ChEMBL document CHEMBL1201862, “PubChem BioAssay data set” (2004)
